We go through six compounds from patent US5552267A, “Solution for prolonged organ preservation” (priority 1994, dated 1996).

pKi: −log10 of the molar value. “Also recorded” adds a separate entry of the source.

The subject of assay [1] is heart. Put plainly: heterotopic rat cardiac transplant, cAMP series, graft survival/score. The conditions noted are these: 12 h in LR. The format is in vivo, rat (male Sprague-Dawley). The text has this: Preservation solutions included lactated Ringer's (LR) solution Baxter, Edison, N.J.), or LR supplemented with rolipram ZK 62 711, Schering AG, Berlin, Germany), indolidan LY195115, Lilly Research Laboratories, Indianapolis, Ind.), sodium butyrate, 8-bromoadenosine, 8-bromoadenosine 3',5'monophosphate (8-Br-cAMP; Sigma Chemical Co., St. Louis, Mo.), the Rp -isomer of adenosine 3',5'monophosphorothioate (Rp -cAMPS; Biolog, La Jolla, Calif.), the Sp isomer of adenosine 3',5'monophosphorothioate (Sp -cAMPS; Biolog), and N^6,O^2' -dibutyryl adenosine 3',5'monophosphate sodium (db-cAMP; Aldrich, Milwaukee, Wis.). Components were combined within 4 hrs of donor cardiectomy, and preservation solutions were kept at 4° C. University of Wisconsin solution (UW)(2-4 was purchased from Dupont (Wilmington, Del.).
Donor Cardiectomy. Male Sprague-Dawley rats (350-450 grams, Camm Research, Wayne, N.J.) were anesthetized, heparinized (1000 units of heparin given intravenously), and the donor heart removed in the following manner; a midline incision was performed, followed by rapid cardioplegic arrest with 5 ml of cold (4° C.), high potassium solution (NACl, 0.9%, and KCl, 40 mEq/L). The heart was maintained at 4° C. throughout the harvest procedure by the application of a cold saline soaked gauze over its surface. […] The aortic root was flushed with ≈15 ml of the cold preservation solution until the coronary arteries became visibly clear, and the heart remained in the cold storage solution for the indicated duration until the time of transplantation.
Heterotopic Transplant. The same breed/size of rat was used, and similarly anesthetized, but not given heparin. A midline abdominal incision was made, and the infrarenal aorta and vena cava were occluded with a side-biting vascular clamp and longitudinal incisions were made in each vessel. The donor heart was removed from the preservation solution and kept moist with saline-soaked gauze. […] Blood flow was restored to the graft (by removal of the clamp) exactly one hour after removal from the cold preservation solution. […] Ten minutes after removal of the cross-clamp, an electrocardiogram was taken (Grass Polygraph, Quincy, Mass.) and the heart was judged by the same blinded investigators throughout based on the presence/absence of regular contractions and a transplant score (0-5, worst-best, respectively) employing the following criteria: contraction (poor=0, average=1, vigorous=2), tissue turgor (hard=0, average=1, soft=2), and color (dusky=0, pink=1). […] The heterotopic cardiac transplant experiments performed in these studies were done by a single surgeon after establishment of this model and acquisition of surgical expertise, with control and experimental groups interspersed throughout the study period to prevent a time-dependent bias pertaining to surgical skills.
Statistics. Graft survival data and transplant scores were analyzed using the Kruskal-Wallis non-parametric analysis of variance (38). Comparisons of individual treatments were performed using the procedure described by Dunn (39). In addition, the effect of db-cAMP on the time-course of graft failure was quantified by multivariate logistic regression. Graft myeloperoxidase data, microsphere data, and cAMP/adenylate cyclase/phosphodiesterase data from experiments with cultured vascular smooth muscle cells were analyzed by t-tests when 2 treatments were performed or by analysis of variance when 3 or more treatments were performed. In the latter case, post-hoc comparison of treatment groups were tested using Tukey's procedure. Values are expressed as means ±SEM, with a p <0.05 considered statistically significant.

In assay [2] the test system is cAMP-dependent protein kinase. The conditions noted are these: cited from earlier work.
The test system of assay [3] is lung. Put plainly: orthotopic rat left lung transplantation, cGMP series (hemodynamics, oxygenation, recipient survival). The format is in vivo, rat (male Lewis). The conditions noted are these: 6 h in EC. The protocol:
Orthotopic rat left lung transplantation was accomplished using inbred male Lewis rats (250-300 gms), using a modification of a previously described technique^29. The donor rat was anesthetized and heparinized (500 U intravenously), and endotracheal intubation was performed by inserting a 16 gauge angiocatheter into the trachea using blunt cervical dissection, after which the rat was ventilated with room air at a constant rate (100 breaths/minute) and tidal volume (2.5 ml), using a Harvard rodent ventilator. […] The pulmonary artery (PA) and pulmonary vein (PV) were divided, the bronchus ligated with the lung partially inflated and then divided, and the lung removed. The vascular stumps were each pulled through a small plastic cylinder, and a lip of vessel was turned back around the edge and secured in place with a suture to form a "cuff." A small plastic cylinder was inserted into the bronchial stump and secured, and the lung was then wrapped in gauze and submerged in cold preservation solution for the desired interval.
The recipient rat (gender/size/strain-matched) was similarly anesthetized and intubated (ventilated with 100% oxygen), but not heparinized. A left thoracotomy was performed, the hilum was dissected, and the left bronchus, PA, and PV were isolated, cross-clamped, divided and the native lung was removed from the field. The PA and PV stumps were rinsed with heparinized saline to remove any clot. The donor lung was brought onto the surgical field, and the cylinder (bronchus) and cuffs (PA and PV) were connected rapidly to their respective structures with a simple staying suture. This cuff technique permitted rapid approximation of donor and recipient tissues with no contact of a foreign substance with the luminal vascular surface. The hilar cross-clamp was released, re-establishing blood flow, and the bronchus tie was removed, enabling gas exchange. A snare was then passed around the right PA, and a Millar catheter (2F; Millar Instruments,Houston, Tex.) was introduced through a small hole (surrounded by a pursestring) into the main PA; similarly, a Millar catheter was introduced into the left atrium (LA). A flow probe (Transonics, Ithaca, N.Y.) was then placed around the main PA. Arterial blood gas sampling performed via the left femoral artery.
Online hemodynamic monitoring was accomplished using MacLab and a Macintosh IIci computer. The hemodynamic parameters that were measured included PA pressure (mm Hg), blood flow (ml/min), LA pressure (mm Hg), as well as arterial oxygen tension (mm Hg) during inspiration of 100% oxygen; pO2 was analyzed with a model ABL-2 dissolved gas analyzer (Radiometer, Copenhagen, Denmark). Pulmonary vascular resistances (PVRs) were calculated as [mean PA pressure-LA pressure]/PA flow. The native lung supported the recipient during the period of warm ischemia (the period during which the donor lung was removed from cold preservation until the time of reperfusion, <10 min. in all instances), but immediately following rapid hemodynamic instrumentation and acquisition of baseline measurements, the native (right) PA was then ligated, and serial measurements (representative solely of the transplanted lung) were taken every five minutes for 30 minutes. Because the native lung was effectively removed from the circulation by ligation of the right PA, these measurements represent function of the transplanted lung. Recipient death was identified by the cessation of cardiac mechanical activity observed through the thoracotomy.
Preservation solutions were freshly made and coded by a technician not otherwise involved in the experiments, according to a general plan which included both control and experimental groups. […]

The target of assay [4] is cGMP-dependent protein kinase. The conditions noted are these: cited from earlier work.
Assay [5] has as its system HUVECs / platelets. Put plainly: NO by inhibition of thrombin-induced platelet aggregation and serotonin release by ECs. The format is cell-based, human. The conditions noted are these: normoxic ECs (hemoglobin); hypoxia 16 h + reoxygenated ECs (SOD, BHT).
Protocol: Radiolabelled serotonin (^14 C-5-hydroxytryptamine, Amersham, Arlington Heights, Ill.) was incorporated into the platelets by adding 0.5 μCi during the blood collection process. Inhibition of cyclooxygenase was confirmed by the absence of aggregation to 1 mM sodium arachidonate.
HUVECs from fresh human umbilical veins were isolated and grown according to previously published methods^12, and used between the 3rd and 4th passages. HUVEC cyclooxygenase was inhibited with acetylsalicylic acid (1 mmol/L in M199 medium, incubated for 30 minutes at 37° C., and then washed twice with M199 to remove residual acetylsalicylic acid) immediately prior to collagenase digestion. […] An hypoxic environment was administered by placing cells in a specially designed airtight chamber (Coy Laboratory Products, Ann Arbor, Mich.) with a normobaric environment comprised of 90% N2, 5% H2, 5% CO2, and 0% O2. pO2 s of 15 Torr in the culture medium were achieved by the use of a palladium catalyst in the chamber to reduce any residual O2. All manipulations, including centrifugation and washing of cells (up to the final aggregometry, or reoxygenation phases as described), were performed within the hypoxia chamber. Reoxygenation was accomplished by removing an aliquot of washed and counted HUVECs in suspension to room air for the indicated duration.
Platelets were challenged with graded doses of α-thrombin (Sigma) to determine the concentration that caused maximal platelet aggregation (0.3 u/mL in all cases), and this dose was used for all further studies. […] Interference with light absorption was measured for 3 minutes to obtain platelet aggregation curves, after which the cuvette contents were placed on ice, centrifuged at 5,000 rpm for 5 minutes at 4° C., and 200 μL of supernatant was recovered and counted in a liquid scintillation counter to quantify ^14 C-serotonin release. […] Results are expressed as both aggregometry curves and as % maximal serotonin release as defined by thrombin challenge in the absence of ECs.
Assay [6] concerns heart. In words: heterotopic rat cardiac transplant, nitric oxide series, graft survival/score. In kind it is in vivo, rat (male Sprague-Dawley). The conditions noted are these: 12 h in LR. The text has this: Male Sprague-Dawley rats (350 grams, Camm Research, Wayne, N.J.) were used, and harvest, preservation, and transplantation procedures performed as described^8. Preservation solutions included lactated Ringer's (LR) solution (Baxter, Edison, N.J.), or LR supplemented with nitroglycerin (DuPont, Wilmington, Del.), sodium nitroprusside (Roche Laboratories, Nutley, N.J.), N^G -monomethyl-L-arginine (L-NMMA; Chembiochem, Salt Lake City, Utah), L-arginine (Sigma Chemical Co., St. Louis, Mo.), or 8-bromoguanosine3',5'monophosphate (8-Br-cGMP; Sigma). Components were combined within 4 hrs of donor cardiectomy, and preservation solutions were kept at 4° C. All of these solutions were at the pH of LR (6.6). University of Wisconsin solution (UW) was purchased from Dupont. […] Ten minutes after removal of the cross-clamp, an electrocardiogram was taken (Grass Polygraph, Quincy, Mass.) and the heart was judged by the same blinded investigators throughout based on the presence/absence of regular contractions and a transplant score (0-5, worst-best, respectively) employing the following criteria: contraction (poor=0, average=1, vigorous=2), tissue turgor (hard=0, average=1, soft=2), and color (dusky=0, pink=1).
Graft survival data was analyzed by contingency analysis (chi-square). Transplant scores, microsphere perfusion, myeloperoxidase, NO synthase, and platelet serotonin release data were analyzed using ANOVA for unpaired variables with the Tukey test used to discriminate significant differences between group means. Values are expressed as means ±SEM, with a p<0.05 considered statistically significant.

The test system of assay [7] is cardiac graft vasculature. Put plainly: perfusion of donor grafts by microspheres, nitric oxide series. The format is in vivo, rat. The conditions noted are these: 12 h preservation in LR. The protocol: Ten minutes after restoration of blood flow, 0.5 ml of 10 μm diameter microspheres (10^6 /ml) (E-Z Trac, Los Angeles, Calif.) was injected into the donor aortic root. Deposition of microspheres in ventricular tissue was assessed following alkaline hydrolysis, washing, and counting of microspheres as described^8, with results expressed as number of spheres per (40×) field per gram of ventricle. A minimum of ten fields were counted and the mean ±SEM is reported.

Assay [8] concerns heart. The conditions noted are these: in vivo; cited from earlier work.

`Nc1ncnc2c1ncn2[C@@H]1O[C@@H]2CO[P@@](O)(=S)O[C@H]2[C@H]1O` [Rp -cAMPS, Rp isomer of adenosine 3'5'monophosphorothioate]: the “effect on cardiac preservation” value in assay [1] was “prevented preservation enhancement induced by 8-bromo-cAMP; also recorded: abolished the salutory effect of 8-Br-cAMP on preservation”. The “effect on cAMP-dependent protein kinase” value in assay [2] was “nonhydrolyzable competitive PKA antagonist”.

What is called pKi is −log10 of the Ki, conventionally taken in molar units. Take `Nc1nc2c(nc(Sc3ccc(Cl)cc3)n2[C@@H]2O[C@@H]3CO[P@@](O)(=S)O[C@H]3[C@H]2O)c(=O)[nH]1` [Rp-8-pCPT-cGMPS, R isomer of 8-(4-chlorophenylthio)guanosine-3'5'-cyclic monophosphorothioate]: the “effect on lung preservation” value in assay [3] is on record as “block the beneficial effects of 8-Br-cGMP”. In addition, the pKi is 6.30 in assay [4] (cGMP-dependent protein kinase, personal communication) and 5.08 in assay [2] (cAMP-dependent protein kinase, personal communication).

Take `Cc1cc(C(C)(C)C)c(O)c(C(C)(C)C)c1` [BHT, butylated hydroxytoluene]: in assay [5], the “effect on NO / platelet inhibition by ECs” value is reported as “restore NO levels”.

In the case of hemoglobin, the “effect on NO / platelet inhibition by ECs” value in assay [5] is listed as “blocked”.

`N=C(N)NCCC[C@H](N)C(=O)O` [L-Arg, L-arginine]: the “effect on graft preservation (words)” value is on record as “enhanced preservation” in assay [6] and “enhanced graft survival” in assay [6] (listed as L-arginine). Besides, in assay [7], the “graft blood flow” value is reported as “enhanced blood flow”. In addition, the “effect in cardiac ischemia models” value in assay [8] is “improve vascular function and outcome”.

For `Nc1ncnc2c1ncn2[C@@H]1O[C@@H]2CO[P@](O)(=S)O[C@H]2[C@H]1O` [Sp -cAMPS, Sp isomer of adenosine 3'5'monophosphorothioate], the “effect on cardiac preservation” value in assay [1] is “enhanced preservation”. In addition, in assay [4], the “effect on cGMP-dependent protein kinase” value is “antagonist of the cGMP-dependent protein kinase”. The “effect on cAMP-dependent protein kinase” value in assay [2] was “PKA agonist”.
